Test results published in US12233089B2, “Foods to promote better health and/or to maintain homeostasis and method of production thereof” (Vector Vitale IP LLC, priority 2021, dated 2025).
Marks after values point to notes of the source that are not given here.

Key:
P. aeruginosa ATCC 27853 [1] = assay: Minimum bactericidal concentration (MBC), P. aeruginosa; type: cell-based
Description: (§1) To evaluate the bactericidal action of the antibacterial composition based on light isotope ^64Zne the minimum bactericidal concentration (MBC) was determined by plating out 0.1 ml of the contents of each tube containing the antibacterial composition on Mueller-Hinton medium. The incubation was at 37° C. for 24 h.
(§2) The MBC of the test samples was determined as the lowest concentration at which there was no growth on Mueller-Hinton agar medium.
(§3) The conditions of the experiment were like those for Zn-64 compound.

S. aureus ATCC 25923 [2] = assay: Minimum bactericidal concentration (MBC), S. aureus; type: cell-based
Description: as §1, §2, §3

RNA and DNA synthesis = assay: Inhibition of RNA and DNA synthesis; type: cell-based
E. coli ATCC 25922 [3] = assay: Minimum bactericidal concentration (MBC), E. coli; type: cell-based
Description: as §1, §2, §3

P. aeruginosa ATCC 27853 [4] = assay: MIC (bacteriostatic activity), P. aeruginosa; type: cell-based; settings: for MIC: Table 5
Source text: as §3

S. aureus ATCC 25923 [5] = assay: MIC (bacteriostatic activity), S. aureus; type: cell-based; settings: Table 5
Source text: as §3

E. coli ATCC 25922 [6] = assay: MIC (bacteriostatic activity), E. coli; type: cell-based; settings: Table 5
Source text: as §3

influenza virus = assay: In vitro reproduction of influenza virus; type: cell-based
[7] = tested on: BVDV—bovine viral diarrhea virus; type: cell-based; settings: in vitro
herpes virus = type: cell-based; settings: in vitro

Row | Compound | MBC (P. aeruginosa ATCC 27853 [1]; 37° C. 24 h, Table 4) [mcg ^64Zne/ml] | MBC (S. aureus ATCC 25923 [2]; 37° C. 24 h, Table 4) | RNA and DNA synthesis (RNA and DNA synthesis) | MBC (E. coli ATCC 25922 [3]; 37° C. 24 h, Table 4) | bacteriostatic activity (in words) (P. aeruginosa ATCC 27853 [4]) | MBC (P. aeruginosa ATCC 27853 [1]; Table 6) [mcg zinc/ml] | MBC (S. aureus ATCC 25923 [2]; Table 6) [mcg zinc/ml] | MIC (S. aureus ATCC 25923 [5]) [zinc mcg/ml] | MBC (E. coli ATCC 25922 [3]; Table 6) [mcg zinc/ml] | MIC (P. aeruginosa ATCC 27853 [4]) [zinc mcg/ml] | MIC (E. coli ATCC 25922 [6]) [zinc mcg/ml] | reproduction of influenza virus (influenza virus) | reproduction of surrogate model of HCV (BVDV) virus [7] | reproduction of herpes virus (herpes virus) | assessment of cytotoxicity and antiviral activity for anti-EBV infection (Epstein-Barr virus)
1 | NC(CCC(=O)[O-])C(=O)[O-].[64Zn+2] (stereo not shown) [^64Zne glutamate] | >750 | 0.046* mcg ^64Zne/ml | Inhibition | 0.37* mcg ^64Zne/ml | best results | – | – | – | – | – | – | – | – | – | –
2 | O=S(=O)([O-])[O-].[64Zn+2] [^64Zne sulfate] | 375 | 0.37* mcg ^64Zne/ml | – | 1.46* mcg ^64Zne/ml | – | 375 | 0.3662 | 0.366 | 1.4648 | 46.875 | 0.0916 | – | – | – | –
3 | NC(CCC(=O)[O-])C(=O)[O-].[64Zn+2] (stereo not shown) [zinc-64 light isotope glutamate] | – | – | – | – | – | – | – | – | – | – | – | effectively inhibited | effectively inhibited | effectively inhibited | –
4 | Zn64 EDDA | – | – | – | – | best results | – | – | – | – | – | – | – | – | – | most promising
5 | ^64Zne EDDS | 375 | 0.73* mcg ^64Zne/ml | – | 2.93* mcg ^64Zne/ml | – | 375 | 0.7324 | 0.73 | 2.9296 | 5.86 | 0.18 | – | – | – | –
